Format in all cases: cell-based
Test [1] deals with RCC4/VHL cell clones overexpressing HIF. The test is described as follows: Sensitivity of RCC4/VHL clones overexpressing HIF. The conditions noted are these: non-degradable, constitutively active HIF; two clones. As for the experimental part:
The hypoxia-inducible factor (HIF) family of transcription factors are VHL targets and we next examined whether toxicity was HIF-dependent (Iliopoulos et al., Nat Med., 1: 822-826 (1995); Maxwell et al., Nature, 399:271-275 (1999); Zimmer et al., Mol Cancer Res., 2:89-95 (2004)). A non-degradable, constitutively active HIF was overexpressed in RCC4/VHL cells. Two individual HIF-overexpressing clones were tested for their sensitivity to STF-31 (Sutphin et al., Cancer Res 67:5896-5905 (2007)). […] Furthermore, the sensitivity of RCCs that lack functional VHL to STF-31 is directly linked to the aberrant up-regulation of HIF.

In another test the test system is UMRC6/VHL. The test is described as follows: RCC panel sensitivity (Table 2). The note with it: VHL wild-type.
For a further test, the system named is 786-0. Briefly: RCC panel sensitivity (Table 2). The note with it: 786-0, VHL mutant.
Another test concerns RCC4/VHL cells. Briefly: Necrotic cell death by trypan blue, RCC4/VHL. The note with it: 5 μM, 3 days. As for the experimental part:
Cell Viability Assays. For 2,3-bis[2-methoxy-4-nitro-5-sulfophenyl]-2H-tetrazolium-5-carboxanilide (XTT) assays, five thousand cells were plated in 96-well plates. The next day, vehicle (DMSO) or drug was added by serial dilution. Four days later, media were aspirated, XTT solution (0.3 mg/ml of XTT (Sigma), […] N-methyl dibenxopyrazine methyl sulfate (Sigma) in phenol red-free media) was added, and the plates were incubated at 37° C. for 1-2 hours. Metabolism of XTT was quantified by measuring the absorbance at 450 nm. IC50s were calculated using linear interpolation. For clonogenic survival assays, three hundred cells were plated per 60 mm tissue culture dish. The cells were allowed to attach overnight and then treated with vehicle or drug for 14 days. Colonies were fixed and stained with crystal violet (0.1% crystal violet in 95% ethanol). All conditions were measured in triplicate and each experiment was done in duplicate or triplicate. To determine necrosis, cells were treated with drug for a given time point. Media and cells were collected, centrifugated, and resuspended in 0.4% trypan blue (Invitrogen). Live and dead cells were counted on a hematocytometer.

The next test has as its system ACHN shVHL. Briefly: RCC panel sensitivity (Table 2). The note with it: VHL silenced.
A further test relates to RCC4 cells. The test is described as follows: Glucose uptake (2-deoxy-D-[3H]glucose), RCC4. As for the experimental part:
Glucose Uptake. One hundred thousand cells were plated per well in a six-well plate. The next day, cells were treated with the indicated concentration of drug and incubated for the indicated time. Cells were then washed twice with phosphate-buffered saline, incubated in low-glucose medium for 30 minutes, and 3H-2-deoxyglucose (0.5 μCi) was added in 1 ml of glucose-free media for an additional hour. Cells were washed twice in PBS and lysed (0.2 N NaOH and 0.2% sodium dodecyl sulfate). Glucose uptake was quantified with a scintillation counter.

A further test relates to hexokinase. The test is described as follows: Hexokinase activity in whole-cell lysates, RCC4. The conditions noted are these: only after three days of treatment. The source says:
We then examined whether this decrease in glycolysis in response to STF-31 was due to a decrease in glucose uptake or whether STF-31 inhibited a particular glycolytic enzyme. To test this, we measured glucose uptake using 2-deoxy-D-[^3H] glucose, a non-hydrolyzable, radioactive glucose analog. STF-31 impaired glucose uptake in RCC4 and 786-O cells but not in the matched isogenic cells expressing wild-type VHL (FIGS. 2B, 6A, and 6C). RCC4/VHL cells had lower baseline levels of glucose uptake compared to RCC4 cells and were unaffected by treatment with STF-31. […] Because the phosphorylation of glucose to glucose-6-phosphate is important for preventing glucose efflux from the cell, we asked whether STF-31 might function by inhibiting the phosphorylation of glucose by hexokinase. […]
Cell Culture and Reagents. […] GLUT1 was detected with anti-GLUT1 antibody from NeoMarkers/LabVision/Fisher. For immunofluorescent studies, GLUT1, GLUT2, and GLUT3 antibodies were purchased from R&D. Pyruvate/lactate levels and hexokinase activity were both measured by fluorometric assay (BioVision and Sigma-Aldrich, respectively). ATP levels were measured by bioluminescence assay (ATP Determination Kit from Molecular Probes/Invitrogen). […]

A further test has as its system VHL-deficient cells. Briefly: ATP levels (bioluminescence assay). As for the experimental part:
Cell Culture and Reagents. All cells were grown in DMEM+10% FCS. ACHN and ACHN shVHL were a kind gift from George V. Thomas (UCLA). HIF overexpressing clones were described previously (Sutphin et al., Cancer Res, 67:5896-5905 (2007)). Transfection of RNA oligos were performed with DnarmaFECT Reagent 1 (Dharmcon), according to manufacturer's directions. ON-TARGETplus SMART pools against HIF-1 R/ARNT were purchased from Dharmacon. Inducible shRNAmir to GLUT1 was purchased from Open Biosystems. GLUT1 was detected with anti-GLUT1 antibody from NeoMarkers/LabVision/Fisher. For immunofluorescent studies, GLUT1, GLUT2, and GLUT3 antibodies were purchased from R&D. Pyruvate/lactate levels and hexokinase activity were both measured by fluorometric assay (BioVision and Sigma-Aldrich, respectively). ATP levels were measured by bioluminescence assay (ATP Determination Kit from Molecular Probes/Invitrogen). In vitro kinase activities were performed by Millipore Kinase Profiler.

Take `CC(C)(C)c1ccc(S(=O)(=O)NCc2ccc(C(=O)Nc3cccnc3)cc2)cc1` [STF-31]: in test [1], the “effect of ectopic HIF expression in wild-type VHL cells on response to STF-31” value is given as “sensitized”. Besides, the figures for the “3-series sensitivity (sensitivity to STF-31)” value with UMRC6/VHL, with 786-0 and in the test with ACHN shVHL were “No”, “Yes” and “Yes”, respectively. Further, the “necrotic cell death of RCC4/VHL cells” value with RCC4/VHL cells is on record as “relatively insensitive”. In the test on RCC4 cells (2-deoxy-D-[3H]glucose), the “glucose uptake in RCC4 cells” value is “impaired”. In addition, the “glucose uptake in RCC4 cells versus concentration” value in the test with RCC4 cells (increasing concentrations of STF-31) is reported as “dose-dependent”. In the test with hexokinase, the “hexokinase activity in RCC4 cells” value is listed as “inhibited”. For the same compound, the “inhibition of ATP production versus concentration” value with VHL-deficient cells was “dose-dependent”. The “decrease in ATP levels” value in the test on VHL-deficient cells (VHL-deficient cells) is listed as 75%.

Values taken from patent US9079859B2, “Synthetic lethal targeting of glucose transport” (AUCKLAND UNISERVICES LIMITED, priority 2011, dated 2015).
